The structures appear in SMILES notation.

The test concerns the target T1, rat NaPi-2b (Rattus norvegicus, UniProt Q9JJ09).
T1 construct: expressed in transfected cells; host or cells: Xenopus oocytes injected with cRNA
T1 sequence (Q9JJ09 1-695): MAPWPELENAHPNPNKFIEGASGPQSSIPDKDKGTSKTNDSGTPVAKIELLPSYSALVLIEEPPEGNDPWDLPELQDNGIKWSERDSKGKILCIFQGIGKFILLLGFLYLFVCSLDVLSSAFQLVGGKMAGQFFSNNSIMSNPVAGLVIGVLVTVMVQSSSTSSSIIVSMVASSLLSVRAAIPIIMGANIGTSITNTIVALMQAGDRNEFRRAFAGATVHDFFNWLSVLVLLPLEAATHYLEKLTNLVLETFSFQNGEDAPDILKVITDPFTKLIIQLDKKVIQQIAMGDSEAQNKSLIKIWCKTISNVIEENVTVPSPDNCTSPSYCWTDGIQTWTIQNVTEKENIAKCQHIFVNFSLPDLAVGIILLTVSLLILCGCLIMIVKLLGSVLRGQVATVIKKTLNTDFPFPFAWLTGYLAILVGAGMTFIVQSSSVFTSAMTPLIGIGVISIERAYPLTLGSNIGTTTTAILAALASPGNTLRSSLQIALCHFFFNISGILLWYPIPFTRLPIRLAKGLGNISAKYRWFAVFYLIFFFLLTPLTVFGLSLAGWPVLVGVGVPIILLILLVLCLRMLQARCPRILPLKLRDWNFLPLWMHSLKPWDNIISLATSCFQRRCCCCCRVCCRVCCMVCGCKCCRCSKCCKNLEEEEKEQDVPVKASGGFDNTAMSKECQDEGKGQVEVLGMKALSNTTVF
The experiment in a line: Sodium-dependent phosphate uptake of Xenopus oocytes which expressed NaPi-2b (32P). It is filed as cell-based. The conditions noted are these: Xenopus oocytes expressing rat NaPi-2b, 32P radioactive phosphorus; read-out: IC50 (phosphate uptake inhibitory activity). Put shortly:
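Rat NaPi-2b cloned from small-intestine cDNA; cRNA injected into Xenopus oocytes, expression for 2 days. Phosphate uptake inhibition measured with 32P; percent inhibition at 300 μM and 100 μM read from the same inhibition curve.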

On to `Cc1ccc(/C=N/NC(=O)c2cc(Br)ccc2NC(=O)c2ccc(CSCCCO)cc2)cc1C` [Compound 273, N-[4-Bromo-2-(3,4-dimethyl-benzylidene-hydrazinocarbonyl)-phenyl]-4-(3-hydroxy-propylsulfanylmethyl)-benzamide], for which the IC50 (usually the concentration that inhibits the measured activity by half) amounted to 0.15 µM.
To `Cc1ccc(/C=N/NC(=O)c2cc(Br)ccc2NC(=O)c2ccc(CSCCCO)cc2)cc1` [Compound 274, N-[4-Bromo-2-(4-methyl-benzylidene-hydrazinocarbonyl)-phenyl]-4-(3-hydroxy-propylsulfanylmethyl)-benzamide] belongs 1.04 µM.
Turning to `Cc1cccc(/C=N/NC(=O)c2cc(Br)ccc2NC(=O)c2ccc(CSCCCO)cc2)c1` [Compound 275, N-[4-Bromo-2-(3-methyl-benzylidene-hydrazinocarbonyl)-phenyl]-4-(3-hydroxy-propylsulfanylmethyl)-benzamide], the IC50 worked out at 1.73 µM.
To `O=C(Nc1ccc(Br)cc1C(=O)N/N=C/c1ccc(F)cc1)c1ccc(CSCCCO)cc1` [Compound 276, N-[4-Bromo-2-(4-fluoro-benzylidene-hydrazinocarbonyl)-phenyl]-4-(3-hydroxy-propylsulfanylmethyl)-benzamide] belongs 6.2 µM; to `O=C(Nc1ccc(Br)cc1C(=O)N/N=C/c1cccc(F)c1)c1ccc(CSCCCO)cc1` [Compound 277, N-[4-Bromo-2-(3-fluoro-benzylidene-hydrazinocarbonyl)-phenyl]-4-(3-hydroxy-propylsulfanylmethyl)-benzamide], 1.6 µM; to `O=C(Nc1ccc(Br)cc1C(=O)N/N=C/c1ccc(Cl)c(C(F)(F)F)c1)c1ccc(CSCCCO)cc1` [Compound 278, N-[4-Bromo-2-(4-chloro-3-trifluoromethyl-benzylidene-hydrazinocarbonyl)-phenyl]-4-(3-hydroxy-propylsulfanylmethyl)-benzamide], 0.16 µM.
To `Cc1ccc(/C=N/NC(=O)c2cc(Br)ccc2NC(=O)c2cccc(CNCCN3CCOCC3)c2)cc1C` [Compound 279, N-[4-Bromo-2-(3,4-dimethyl-benzylidene-hydrazinocarbonyl)-phenyl]-3-[(2-morpholin-4-yl-ethylamino)-methyl]-benzamide] belongs 2.31 µM; to `CCN(CC)CCN(C)Cc1ccc(C(=O)Nc2ccc(Br)cc2C(=O)N/N=C/c2ccc(C)c(C)c2)cc1` [Compound 280, N-[4-Bromo-2-(3,4-dimethyl-benzylidene-hydrazinocarbonyl)-phenyl]-4-{[(2-diethylamino-ethyl)-methyl-amino]-methyl}-benzamide], 0.78 µM.
To `Cc1ccc(/C=N/NC(=O)c2cc(Br)ccc2NC(=O)c2ccc(CNCCN3CCOCC3)cc2)cc1C` [Compound 281, N-[4-Bromo-2-(3,4-dimethyl-benzylidene-hydrazinocarbonyl)-phenyl]-4-[(2-morpholin-4-yl-ethylamino)-methyl]-benzamide] belongs 4.6 µM; to `Cc1ccc(/C=N/NC(=O)c2cc(Br)ccc2NC(=O)c2ccc(CNCCN3CCOCC3)cc2)cc1` [Compound 282, N-[4-Bromo-2-(4-methyl-benzylidene-hydrazinocarbonyl)-phenyl]-4-[(2-morpholin-4-yl-ethylamino)-methyl]-benzamide], 6.71 µM; to `Cc1cccc(/C=N/NC(=O)c2cc(Br)ccc2NC(=O)c2ccc(CNCCN3CCOCC3)cc2)c1` [Compound 283, N-[4-Bromo-2-(3-methyl-benzylidene-hydrazinocarbonyl)-phenyl]-4-[(2-morpholin-4-yl-ethylamino)-methyl]-benzamide], 22.4 µM.
Consider `O=C(Nc1ccc(Br)cc1C(=O)N/N=C/c1ccc(F)cc1)c1ccc(CNCCN2CCOCC2)cc1` [Compound 284, N-[4-Bromo-2-(4-fluoro-benzylidene-hydrazinocarbonyl)-phenyl]-4-[(2-morpholin-4-yl-ethylamino)-methyl]-benzamide], for which the IC50 stood at 26.9 µM.

The record behind these values is patent publication US8134015B2, “Compound inhibiting in vivo phosphorous transport and medicine containing the same” (Kyowa Hakko Kirin Co., Ltd., priority 2003, dated 2012).
